From article PMC7693203 (Epilepsia, 2020)

Legend:
[1] = system: CYP3A4/2C19; details: result in words
[2] = steady-state CBD, healthy volunteers; result in words; cited from earlier work
[3] = system: UGT2B7; details: in vitro; result in words; cited from earlier work
[4] = target: CYP3A4 (Homo sapiens, UniProt P08684); assay: clinical; details: in vivo, 750 mg
Sequence of CYP3A4 (P08684 whole entry): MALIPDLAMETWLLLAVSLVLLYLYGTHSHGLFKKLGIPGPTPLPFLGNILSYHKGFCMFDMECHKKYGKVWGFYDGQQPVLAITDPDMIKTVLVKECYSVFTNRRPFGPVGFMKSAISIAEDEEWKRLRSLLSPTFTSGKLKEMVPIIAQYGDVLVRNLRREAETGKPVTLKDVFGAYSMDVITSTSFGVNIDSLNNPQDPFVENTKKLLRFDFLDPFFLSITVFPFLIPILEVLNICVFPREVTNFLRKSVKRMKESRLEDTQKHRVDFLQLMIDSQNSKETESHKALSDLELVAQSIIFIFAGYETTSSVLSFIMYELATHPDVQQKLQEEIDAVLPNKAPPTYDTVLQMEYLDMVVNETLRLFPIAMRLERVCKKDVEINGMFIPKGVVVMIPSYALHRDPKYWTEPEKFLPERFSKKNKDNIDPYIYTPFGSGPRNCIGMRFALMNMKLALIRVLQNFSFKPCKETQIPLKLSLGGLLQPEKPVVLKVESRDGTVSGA

## C=C(C)[C@@H]1CCC(C)=C[C@H]1c1c(O)cc(CCCCC)cc1O [CBD, cannabidiol]
[1]
  t ½ with concomitant RIF: unaffected
[2]
  effect of concomitant STP on exposure: no effect
  effect of concomitant VPA on exposure: did not affect
[3]
  inhibition of UGT2B7: potently inhibits
[4]
  half-life: 56.8 h
